Reference: US11319324B2, “Pyrazolo-pyrrolo-pyrimidine-dione derivatives as P2X3 inhibitors” (Bayer Aktiengesellschaft, priority 2017, dated 2022)

Experiments:
human P2X3 receptor [1] = molecular target: T1, human P2X3 receptor (Homo sapiens, UniProt P56373); assay: Intracellular calcium measurement, antagonist activity at human P2X3 receptors (hP2X3 1321N1), Fluo8; type: cell-based; set-up: expressed in transfected cells; host or cells: human astrocytoma 1321N1 (1312N1 [sic]); details: column 3); 1321N1 cells, human P2X3, Fluo8, agonist ATP at EC50
T1 sequence (P56373 1-397): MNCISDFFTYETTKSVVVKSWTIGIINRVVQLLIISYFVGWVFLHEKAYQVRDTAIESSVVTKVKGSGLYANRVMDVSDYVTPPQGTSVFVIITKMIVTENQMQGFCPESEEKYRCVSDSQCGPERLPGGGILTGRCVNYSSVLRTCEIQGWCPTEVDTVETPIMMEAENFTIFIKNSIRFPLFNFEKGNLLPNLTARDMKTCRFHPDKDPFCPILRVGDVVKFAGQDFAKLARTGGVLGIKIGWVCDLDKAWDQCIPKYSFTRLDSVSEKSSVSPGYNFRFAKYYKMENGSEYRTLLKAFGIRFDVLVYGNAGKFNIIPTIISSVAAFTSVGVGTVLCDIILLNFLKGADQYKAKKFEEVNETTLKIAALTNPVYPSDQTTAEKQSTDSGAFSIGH
Procedure, shortened: (§1)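 Inhibition of ATP-triggered Ca2+ transients is measured in 1321N1 cells expressing P2X3 homotrimers or P2X2/3 heterotrimers.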

human P2X2/3 receptors = molecular target: T2, human P2X2/3 receptors (Homo sapiens, UniProt P56373+Q9UBL9); assay: Intracellular calcium measurement, antagonist activity at human P2X2/3 receptors (hP2X23 1321N1), Fluo8; type: cell-based; details: for IC50: column 4); 1321N1 cells, human P2X2/3, Fluo8, agonist ATP at EC50; read-out: 4) hP2X2/3 IC50 [nM] (1321N1); for hP2X23/hP2X3* Selectivity (1321N1): ratio of column 4) hP2X2/3 to column 3) hP2X3, 1321N1
T2 construct: expressed in transfected cells; host or cells: human astrocytoma 1321N1 (1312N1 [sic])
T2 sequence (P56373 1-397): T1 sequence (P56373 1-397)
T2 sequence (Q9UBL9 1-471): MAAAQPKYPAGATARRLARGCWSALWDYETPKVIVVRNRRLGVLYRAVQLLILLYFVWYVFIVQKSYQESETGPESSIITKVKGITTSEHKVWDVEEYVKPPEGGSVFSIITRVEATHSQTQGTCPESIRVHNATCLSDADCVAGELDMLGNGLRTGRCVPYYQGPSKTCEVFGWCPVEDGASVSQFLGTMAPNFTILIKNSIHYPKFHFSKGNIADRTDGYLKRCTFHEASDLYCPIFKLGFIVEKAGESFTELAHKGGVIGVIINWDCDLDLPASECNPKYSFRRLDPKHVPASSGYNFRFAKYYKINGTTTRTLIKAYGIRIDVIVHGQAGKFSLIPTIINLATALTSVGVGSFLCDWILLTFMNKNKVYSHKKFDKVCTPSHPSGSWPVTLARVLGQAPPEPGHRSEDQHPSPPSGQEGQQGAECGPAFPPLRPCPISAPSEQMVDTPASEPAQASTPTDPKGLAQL
Procedure, shortened: as §1

human P2X3 receptor [2] = molecular target: T1, human P2X3 receptor; assay: Intracellular calcium measurement to assess antagonist activity at human P2X3 receptors (hP2X3 CHO), photina luminescence; type: cell-based; set-up: expressed in transfected cells; host or cells: Chinese hamster ovary (CHO) cells; details: column 2), CHO cells, agonist α,β-methylene-ATP at EC50
Procedure, shortened: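 CHO cells stably expressing human P2X3 and mitochondrial photina, plated the day before at 30 °C, then loaded 3 h at 37 °C in 2 mM Ca-tyrode buffer with 5 μg/ml coelenterazine. Agonist-evoked calcium luminescence read immediately; inhibition seen as signal decrease.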

human P2X3 receptor [3] = molecular target: T1, human P2X3 receptor; assay: Intracellular calcium measurement to assess antagonist activity at human P2X3 receptors (hP2X3 FLIPR); type: cell-based; set-up: expressed in transfected cells; host or cells: human astrocytoma 1321N1 (1312N1 [sic]); details: head prints (1321N1); read-out: 1) hP2X3 IC50 [nM] (1321N1)
Procedure, shortened: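 Human P2X3-expressing […] astrocytoma cells, Fluo-4-loaded, were preincubated with compound 30 min at 37 °C in HBSS/HEPES probenecid buffer (0.5 mM CaCl2, pH 7.4, 1% DMSO final). Agonist-evoked peak fluorescence over 90 s was normalised to DMSO and control wells; IC50 fitted from triplicates.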

[4] = clinical trials; affecting taste sensation via the tongue; cited from earlier work

IC50 (human P2X3 receptor [1])	IC50 (human P2X2/3 receptors)	hP2X23/hP2X3* Selectivity (1321N1) (human P2X2/3 receptors)	IC50 (human P2X3 receptor [2])	IC50 (human P2X3 receptor [3])	SMILES	taste disturbances in treated subjects [4]
82 nM	2850 nM	35	81 nM	56 nM	CC[C@H](C)N1Cc2c(n(CC(=O)Nc3ccc(Cl)cn3)c3cc(C(F)(F)F)nn3c2=O)C1=O [Example 22]	–
177 nM	9600 nM	54	345 nM	147 nM	Cc1ccc(NC(=O)Cn2c3c(c(=O)n4nc(C(C)(C)C)cc24)CN(C(C)C)C3=O)nc1 [Example 4]	–
–	–	–	–	–	COc1cc(C(C)C)c(Oc2cnc(N)nc2N)cc1S(N)(=O)=O [AF-219]	leads to taste disturbances
76 nM	10000 nM	132	60 nM	35 nM	CCc1cc2n(CC(=O)Nc3ccc(F)cn3)c3c(c(=O)n2n1)CN(C(C)C)C3=O [Example 24]	–
205 nM	> 21000 nM	>102	118 nM	95 nM	CC(C)(C)c1cc2n(CC(=O)Nc3ccc(F)cn3)c3c(c(=O)n2n1)CN(C1COC1)C3=O [Example 27]	–
263 nM	8100 nM	31	555 nM	182 nM	CC(C)(C)c1cc2n(CC(=O)Nc3ccc(Cl)cn3)c3c(c(=O)n2n1)CN(C1COC1)C3=O [Example 48]	–
393 nM	> 21500 nM	>55	170 nM	344 nM	Cc1ccc(NC(=O)Cn2c3c(c(=O)n4nc(C(F)(F)F)cc24)CN(C(C)C)C3=O)nc1 [Example 30]	–
